Measured values as given in US20240108745A1, “BIOACTIVE SUBSTANCE CONJUGATE, PREPARATION METHOD THEREFOR AND USE THEREOF” (MEDILINK THERAPEUTICS (SUZHOU) CO., LTD., priority 2021, published 2024).
Where two headings read alike, the source gives them in different places.

What was measured:
HCC1806 cells = assay: Assay I of bioactive molecules on cell viability in vitro (CCK8); type: cell-based; details: Homo sapiens, HCC1806, 72 h; 7500 cells/well, 3 days; read-out: EC50(nM), killing of HCC1806 cells
Protocol: (§1) Tumor cells were first cultured; the bioactive molecules of the present disclosure were co-cultured with tumor cells, and then CCK8 reagent (Dojindo Laboratories (Shanghai), Cat: CK04, Lot: JJ744) was added, and the activity of dehydrogenase in mitochondria was detected by reading (detection wavelength 450 nm) on a microplate reader (manufacturer: Molecular Devices, model: SpectraMax M2), to evaluate the inhibitory effect of bioactive molecules on cell proliferation.
(§2) In vitro cell viability assay method: bioactive molecules (12 concentration gradients) were diluted with corresponding assay medium (containing 2% FBS). The tumor cells were digested by conventional methods using trypsin, and cells in tube were collected and counted, then resuspended in the corresponding assay media (containing 2% FBS). The diluted bioactive molecules were added to a 96-well plate, followed by the cells. Then, 20 μL of CCK8 reagent was added to each well, and the reaction was carried out for 4 h, then the plate was read on a microplate reader (detection wavelength was 450 nm). The experimental results are shown in Tables 6.1, 6.2, 6.3, 6.4, and 6.5.

LS174T cells = assay: as above; type: cell-based; details: Homo sapiens, read-out: EC50(nM), killing of LS174T cells
Protocol: as §1, §2

NCl-H322M cells = assay: as above; type: cell-based; details: Homo sapiens, read-out: EC50(nM), killing of NCl-H322M cells
Protocol: as §1, §2

PANC-1 cells = assay: as above; type: cell-based; details: Homo sapiens, read-out: EC50(nM), killing of PANC-1 cells
Protocol: as §1, §2

A431 = assay: Assay II of bioactive molecules on cell viability in vitro (CCK8); type: cell-based; details: Homo sapiens, A-431; CCK8, 3-4 days
Protocol: as §1, with “Tumor cells NUCG-4, PC-9, HT29, NCI-H358, KYSE520, A431 and A549 were first” for “Tumor cells were first”, “bioactive molecules or fragments of the” for “bioactive molecules of the”
(§3) In vitro cell viability assay method: the tumor cells were digested by conventional methods using trypsin, and cells in tube were collected and counted, and then resuspended in the corresponding assay media (containing 2% FBS), which was added to a 96-well plate at 5000-10000 cells/well. Bioactive molecules were diluted with DMSO, and then 100 μL was added to a 96-well plate, the initial concentration was 10 μM, followed by 3-fold serial dilution (12 concentration gradients). The plate was incubated for 3-4 days at 37° C. under 5% CO2. Then, 20 μL of CCK8 reagent was added to each well, and the reaction was carried out for 2-6 h. The plate was read on a microplate reader (detection wavelength was 450 nm).

A549 = assay: as above; type: cell-based; details: Homo sapiens, CCK8, 3-4 days
Protocol: as §1, with “Tumor cells NUCG-4, PC-9, HT29, NCI-H358, KYSE520, A431 and A549 were first” for “Tumor cells were first”, “bioactive molecules or fragments of the” for “bioactive molecules of the”
as §3

HT29 = assay: as above; type: cell-based; details: Homo sapiens, HT-29; CCK8, 3-4 days
Protocol: as §1, with “Tumor cells NUCG-4, PC-9, HT29, NCI-H358, KYSE520, A431 and A549 were first” for “Tumor cells were first”, “bioactive molecules or fragments of the” for “bioactive molecules of the”
as §3

NCI-H358 = assay: as above; type: cell-based; details: Homo sapiens, CCK8, 3-4 days
Protocol: as §1, with “Tumor cells NUCG-4, PC-9, HT29, NCI-H358, KYSE520, A431 and A549 were first” for “Tumor cells were first”, “bioactive molecules or fragments of the” for “bioactive molecules of the”
as §3

NUCG-4 = assay: as above; type: cell-based; details: CCK8, 3-4 days
Protocol: as §1, with “Tumor cells NUCG-4, PC-9, HT29, NCI-H358, KYSE520, A431 and A549 were first” for “Tumor cells were first”, “bioactive molecules or fragments of the” for “bioactive molecules of the”
as §3

PC-9 = assay: as above; type: cell-based; details: Homo sapiens, CCK8, 3-4 days
Protocol: as §1, with “Tumor cells NUCG-4, PC-9, HT29, NCI-H358, KYSE520, A431 and A549 were first” for “Tumor cells were first”, “bioactive molecules or fragments of the” for “bioactive molecules of the”
as §3

HT29 cells = assay: Assay III of bioactive molecules on cell viability in vitro (CCK8); type: cell-based; details: Homo sapiens, HT-29; CCK8, 3-4 days (Assay III); read-out: EC50(nM), killing of HT29 cells
Protocol: Tumor cells HT29 (having a same source as the above) were first cultured. The bioactive molecules or fragments of the present disclosure were co-cultured with tumor cells, and then CCK8 reagent (Dojindo Laboratories (Shanghai), Cat: CK04, Lot: JJ744) was added, and the activity of dehydrogenase in mitochondria was detected by reading (detection wavelength 450 nm) on a microplate reader (manufacturer: Molecular Devices, model: SpectraMax M2), to evaluate the inhibitory effect of bioactive molecules on cell proliferation.
as §3, with “then” for “then 100 μL was”, “plate at 100 μL,” for “plate,”, “[…],” for “10 μM,”

[1] = human plasma 37° C., ADC 200 μg/mL, A1.9 released from B7H3-ADC-07(DAR8), DXD from B7H3-C1-ADC-21(DAR4)
Protocol: The appropriate concentration of internal standard stock solution was prepared with DMSO, and then acetonitrile or other reagents were used to prepare the appropriate concentration of the internal standard-containing precipitant.
Incubation of sample: the bacteriostatic agent ProClin was added to the plasma of each genera (human, cynomolgus monkey, ICR mouse) and PBS containing 1% BSA, and the final concentration of ProClin was 0.1%, Sterile operations were adopted. 40 μL working solution of test substance and 360 μL of human plasma were mixed to prepare 200 μg/mL of incubation sample. The plate was sealed with a film, and then incubated at 37° C. under 5% CO2 in an incubator, with a shaking speed of 80 times/mm. At 0 h, 4 h, 24 h, 2 d, 3 d, 7 d, 10 d, 14 d, 17 d, 21 d and 28 d, 20 μL of plasma sample was transferred, to which was added 200 μL of precipitant (containing internal standard), and completely mixed to precipitate the proteins.
All samples were subject to protein precipitating, and then centrifuged to collect the supernatant, which was diluted with water, and analyzed by LC-MS/MS.

[2] = cited from earlier work

CC[C@@]1(O)C(=O)OCc2c1cc1n(c2=O)Cc2c-1nc1cc(F)c(C)c3c1c2[C@@H](NC(=O)CO)CC3 [DXD, DXd, reference compound]
EC50 (HCC1806 cells): 37 nM | EC50 (LS174T cells): 82 nM | EC50 (NCl-H322M cells): 76.9 nM | EC50 (PANC-1 cells): 966 nM | EC50 (A431): 25.1 nM | EC50 (A549): 262 nM | EC50 (HT29): 210 nM | EC50 (NCI-H358): 262 nM | EC50 (NUCG-4): 43.3 nM | EC50 (PC-9): 16.7 nM | EC50 (HT29 cells): 22.9 nM | Release ratio (%) ([1]; day 0): 0.348% | Release ratio (%) ([1]; day 0.17): 1.786% | Release ratio (%) ([1]; day 1): 2.765% | Release ratio (%) ([1]; day 2): 3.603% | Release ratio (%) ([1]; day 3): 3.763% | Release ratio (%) ([1]; day 7): 4.116% | Release ratio (%) ([1]; day 10): 5.126% | Release ratio (%) ([1]; day 14): 5.786% | Release ratio (%) ([1]; day 17): 6.446% | Release ratio (%) ([1]; day 21): 7.494% | Release ratio (%) ([1]; day 28): 12.659%

Trodelvy
plasma half-life [2]: less than 24 hours
